Series [1] in a line: Randomized, double blind, parallel bioavailability study (plasma CBD, THC and metabolites by LCMS). To be noted: human, oral. As to the method: Dosage was standardized to 10 mg of THC. […] Secondary outcome was a subjective evaluation of drug effects assessed using modified Drug Effects Questionnaire (DEQ-5) for the control product and the experimental product. Relevant experimental descriptions of several study aspects are detailed below.
Administration: A pre-dose plasma (via IV catheter) and a urine sample is collected from the participant before the administration of the emulsions/formulations. […] The bowl in which the product is mixed is rinsed with 100 ml water and the participant consumes the complete amount. After the product mixture is consumed, the participant is provided with an 8 oz glass of water that is then consumed in its entirety within 1-2 minutes.
The samples are also analyzed for HbAlc, CBC, electrolytes (Na, K, Cl, Ca), creatinine, estimated glomerular filtration rate (eGFR), aspartate aminotransferase (AST), alanine aminotransferase (ALT), and bilirubin. Urine samples are also obtained at the following time ranges: 1-4 hrs, 4-8 hrs and 8-12 hrs.
Plasma and urine samples are collected at KGK Science.

The conditions of series [2]: cited from earlier work; for time to achieve peak plasma concentration (tmax): different doses; for half-life / systemic bioavailability: humans.

Molecules are shown by their SMILES. Like-named read-outs stand apart in the source and are kept apart here.

Take `C=C(C)[C@@H]1CCC(C)=C[C@H]1c1c(O)cc(CCCCC)cc1O` [CBD, (−)-Cannabidiol (CBD)]: the time of peak concentration (Tmax) in series [1] was 0.167 to 1.42 h. Also, in series [2], the “time to achieve peak plasma concentration (tmax)” value is 1.5 to 4 h. Moreover, the values for the half-life in series [2] (intravenous injection), in series [2] (oral administration) and in series [2] (smoking) were 18 to 33 h, 48 to 120 h and 27 to 35 h, respectively.

Consider `CCCCCc1cc(O)c2c(c1)OC(C)(C)[C@@H]1CCC(C)=C[C@@H]21` [Δ^9-THC, Δ^9-Tetrahydrocannabinol (Δ^9-THC)], for which, in series [1], the Tmax fell in the range of 0.167 to 1.5 h. Besides, the “time to achieve peak plasma concentration (tmax)” value in series [2] was 1 to 2 h. Further, the results for the systemic bioavailability in series [2] (oral) and in series [2] (smoked) were 4-12% and 10-27%, respectively. Besides, the “maximal plasma concentrations observed as late as” value in series [2] (orally taken, in some cases) was at most 6 h.

Usually Tmax stands for the time from dosing to the highest level. A word on the half-life: it is how long it takes for the measured level to halve.

The values are drawn from patent publication US20200138772A1, “STABILIZED FORMULATIONS OF CANNABINOID COMPOSITIONS” (priority 2018, published 2020).
